Read-outs that look alike come from different tables or passages of the source.
Experiments:
Format in all cases: binding
HLA-A*30:02 [1] = molecular target: T1, HLA-A*30:02 (Homo sapiens, UniProt P04439, D101N/D140H/D185E/E176R/F33S/G80R/H175R/K168Q/Q94H/R138E/R41S/V100E); conditions: duplicated experiments, positive binder >40%
HLA-C*07:01 = HLA-C*07:01 (Homo sapiens, UniProt P10321, K90N/S123Y); conditions: duplicated experiments, positive binder >40%
HLA-A*30:02 [2] = molecular target: T1, HLA-A*30:02
HLA-A*30:02 [3] = molecular target: T1, HLA-A*30:02; conditions: time points 0-8 h
HLA-A*30:01 = HLA-A*30:01 (Homo sapiens, UniProt P04439, D140H/D185E/E176W/F33S/G80R/H175R/K168Q/R138E/R41S); conditions: duplicated experiments, positive binder >40%
HLA-A*02:01 [4] = molecular target: T2, HLA-A*02:01 (Homo sapiens, UniProt P04439, D140Y/D185E/D98H/E176V/E277Q/G131W/G231S/I119V/I121R/I166T/I218V/L300P/L318F/N151K/N90K/P208A/P217A/Q86G/Q94H/R138H/R169H/T345S); conditions: time points 0-8 h; time when 50% of peptide has dissociated
HLA-A*68:01 = HLA-A*68:01 (Homo sapiens, UniProt P04439, A269V/D185E/E176V/E277Q/E87N/F33Y/G231S/I121M/I166T/I218V/L180W/L300P/L318F/N151K/P208A/P217A/Q86R/R169H/T345S); conditions: duplicated experiments, positive binder >40%
HLA-B*58:01 = HLA-B*58:01 (Homo sapiens, UniProt P01889, A329T/C349S/D201E/D98Y/E176V/E187L/E204Q/E69T/G107R/I218V/I90N/K202T/L105A/L119I/N104I/N87E/Q89R/Q94S/R106L/R155S/R180L/R86G/S101N/S121R/S35A/S48A/T118I/V127L/V306I/V36M/Y140S/Y91M); conditions: duplicated experiments, positive binder >40%
HLA-A*02:01 [5] = molecular target: T2, HLA-A*02:01; conditions: plate-bound monomer 0.5 µg/ml, duplicated experiments, positive binder >40%
HLA-A*24:02 = HLA-A*24:02 (Homo sapiens, UniProt P04439, D101N/D140Y/D185E/E176V/E190D/F33S/G103R/G107R/I119L/I121M/I306V/K335N/L105A/L180Q/L300P/N151K/N90K/Q86E/Q94H/R106L/R138H/R89G/T104I/T345S/V100E/W191G/Y123F); conditions: duplicated experiments, positive binder >40%
HLA-B*07:02 = HLA-B*07:02 (Homo sapiens, UniProt P01889); conditions: percent relative the binding of positive control peptide […]; duplicated experiments; positive binder >40%
HLA-A*02:01 [6] = molecular target: T2, HLA-A*02:01; conditions: peptide quantity for 50% binding saturation
[7] = percent relative the binding of positive control peptide KIQNFRVYY
[8] = percent relative the binding of positive control peptide KYFDEHYEY
[9] = peptide titrated 10−4 to 10−9 M
[10] = percent relative the binding of positive control peptide KTKDIVNGL
[11] = percent relative the binding of positive control peptide KTGGPIYKR
[12] = percent relative the binding of positive control peptide IAMESIVIW
[13] = percent relative the binding of positive control peptide FLPSDFFPSV
[14] = percent relative the binding of positive control peptide RYLKDQQLL
[15] = percent relative the binding of positive control peptide […]

| Substance | Bind A*30:02 (HLA-A*30:02 [1]; [7]) [%] | Bind C*07:01 (HLA-C*07:01; [8]) [%] | O-rate A*30:02 (t1/2) (HLA-A*30:02 [3]) [h] | Bind A*30:01 (HLA-A*30:01; [10]) [%] | O-rate A*02:01 (t1/2) (HLA-A*02:01 [4]) [h] | Bind A*68:01 (HLA-A*68:01; [11]) [%] | Bind B*58:01 (HLA-B*58:01; [12]) [%] | Bind A*02:01 (HLA-A*02:01 [5]; [13]) [%] | Bind A*24:02 (HLA-A*24:02; [14]) [%] | Bind B*07:02 (HLA-B*07:02) [%] | Aff A*02:01 (ED50) (HLA-A*02:01 [6]; [9]) [µM] | Bind A*30:02 (HLA-A*30:02 [1]; [15]) [%] | Bind A*02:01 (HLA-A*02:01 [5]; [15]) [%] | Aff A*02:01 (ED50) (HLA-A*02:01 [6]; […]) [µM] | other results |
| --- | --- | --- | --- | --- | --- | --- | --- | --- | --- | --- | --- | --- | --- | --- | --- |
| AMASTEGNV [Rv3875_82–90] | 102 | 3 | 2.5 | 0 | 1.0 | 0 | 0 | 87 | 0 | 11 | 0.03 |  |  |  | Aff A*30:02 (ED50) (HLA-A*30:02 [2]; [9]): 0.007 µM |
| HSMSSTHEA [Rv0288_70–78m1] |  |  | 0.9 |  | 0.3 |  |  |  |  |  |  | 39 | 45 | 1000 | Aff A*30:02 (ED50) (HLA-A*30:02 [2]): 0.006 µM; Bind A*68:01 (HLA-A*68:01; [15]): 0% |
| KLAAAWGGS [Rv3875_38-46] | 39 | 11 |  | 0 | 2 | 0 | 21 | 57 | 33 | 6 | 0.1 |  |  |  |  |
| VQQKWDATA [Rv3875_54–62] | 76 | 9 | 1.6 | 21 | 1.2 | 0 | 12 | 54 | 0 | 9 | 0.005 |  |  |  | Aff A*30:02 (ED50) (HLA-A*30:02 [2]; [9]): 0.06 µM |
| ALQNLARTI [Rv3875_68–76] | 17 | 0 |  | 0 | 1.7 | 0 | 0 | 73 | 0 | 8 | 0.03 |  |  |  |  |
| F EW YYQSG L |  |  |  |  | 0.8 |  |  |  |  | 11 |  | 26 | 124 | 0.7 | Bind C*07:01 (HLA-C*07:01; [15]): 15%; Bind A*30:01 (HLA-A*30:01; [15]): 10%; Bind A*68:01 (HLA-A*68:01; [15]): 10%; Bind B*58:01 (HLA-B*58:01; [15]): 0%; Bind A*24:02 (HLA-A*24:02; [15]): 37% |
| LLDEGKQSL [Rv3875_28–36] | 0 | 19 |  | 20 | 4.9 | 4 | 2 | 61 | 0 | 3 | 0.7 |  |  |  |  |
| IQGNVTSIH [Rv3875_18–26] | 36 | 5 |  | 13 | 0.2 | 17 | 7 | 51 | 0 | 3 | 1 |  |  |  |  |
| AMLDHAGDM [Rv0288_10–18m2] |  |  | 0.4 |  | 1.1 |  |  |  |  |  |  | 100 | 47 | 0.08 | Aff A*30:02 (ED50) (HLA-A*30:02 [2]): 0.7 µM; Bind A*24:02 (HLA-A*24:02; [15]): 13% |
| NLARTISEA [Rv3875_71–79] | 17 | 12 |  | 15 | 2.3 | 9 | 21 | 72 | 11 | 10 | 0.04 |  |  |  |  |
| SQIMYNYPT [Rv0288_2–10m1] |  |  | 0.5 |  | 0.7 |  |  |  |  |  |  | 31 | 47 | 1 | Aff A*30:02 (ED50) (HLA-A*30:02 [2]): 4 µM |
